# Experimental data reported in patent US20120172650A1, “USE OF SO[…] AN ANALOGUE THEREOF IN COMBINATION WITH EXTERNAL RADIATION THERAPY” (priority 2009, published 2012).
# Read-outs that look alike come from different tables or passages of the source.
# Columns and labels:
# [1] = Tolerability in GH3 tumor-bearing mice (body weight, appearance, activity); assay type: in vivo, nude mice
# Description: (§1) Tumor volume was calculated using the formula: tumor volume (mm^3)=π/6×length×width^2. The length and width of the tumors were measured with calipers before treatment and three times a week thereafter, until the tumor volume reached at least 4 times (4×) the pre-treatment volume. The tumor volume quadrupling (4×) time was determined by a best-fit regression analysis. The tumor growth delay (TGD) time (in days) is the difference between the tumor volume quadrupling time of treated tumors compared to the tumor volume quadrupling time of untreated control tumors. Both the tumor volume quadrupling time and tumor growth delay time were calculated for each individual animal and then averaged for each group. In some experiments, a complete response of tumors was recorded if a tumor shrunk to the point that it was not palpable at the end of the experiment. Body weight was measured twice a week.
# GH3 cells [2] = assay: Apoptosis and cell cycle analysis by FACScan flow cytometry (propidium iodide); assay type: cell-based, rat; conditions: for apoptotic sub-G1 cells: 48 hours after 10 Gy radiation
# Description: Apoptosis and cell cycle distribution was analyzed using a FACScan flow cytometer (BD Biosciences, San Jose, Calif.). The level of apoptosis was quantified by measuring the number of sub-diploid (sub-G1) cells. Briefly, GH3 cells were plated in 60 mm dishes at a density of approximately 500,000 cells/dish and treated with lanreotide and gamma irradiation. Approximately 48 to 168 hours after exposure, the cells were collected and washed with cold PBS supplemented with 5 mM EDTA. Cells were re-suspended in cold PBS-EDTA solution and fixed with cold 100% ethanol. After incubation for 30 minutes at room temperature, the cells were centrifuged and the pellet of cells was treated with 100 μg/ml of RNase A in a PBS-EDTA solution for 30 minutes at room temperature. Propidium iodide (PI) was added to a final concentration of 50 μg/ml and the DNA content was analyzed with a FACScan flow cytometer (BD Biosciences, San Jose, Calif.). The percentage of cells in the apoptotic sub-G1, G1, S, and G2/M phases was calculated.
# GH3 cells were placed in 60 mm Petri dishes at a concentration of approximately 500,000 cells/dish and allowed to grow overnight. Lanreotide at 100 nM was added at 48 hours, 24 hours or immediately (0 hours) before irradiation. Cells were irradiated with 10 Gy gamma radiation at room temperature and collected 48, 72, 96 and 168 hours after exposure.
# The DNA content of the cells was analyzed using a FACScan and the percentages of cells in the apoptotic sub-G1, G1, S and G2/M phases were calculated. […] The percentage of cells in sub-G1, G1, S and G2/M phases at 48 hours was 1.4±0.2%, 73.2±1.0%, 8.4±1.0% and 16.9±1.8%, respectively.
# GH3 xenograft tumors = assay: Mouse GH3 xenograft tumor model, tumor growth delay; assay type: in vivo, nude mice
# Description: Male nude mice, 8 weeks old and 20-25 grams in body weight, were used in this study (Charles River Laboratories, Hollister, Calif.). Prior to experimentation the mice were tested and found to be negative for specific pathogens. The mice were maintained under specific-pathogen-free conditions and allowed to breed. Sterilized food and water were available ad libitum.
# Tumors were initiated in the in the right flank of the mice by a subcutaneous injection of 5×10^6 tumor cells suspended in 100 μl of a 1:1 mixture of Hank's solution and Matrigel (BD Biosciences, San Jose, Calif.). Each mouse received one inoculation injection. When the tumors reached an average size of 120 mm^3 (80-200 mm^3), the mice were randomly assigned to different treatment groups with 5-8 mice in each group. Lanreotide was administered to each mouse via subcutaneous injection. […]
# Local irradiation of individual tumors was carried out as follows. Unanesthetized tumor-bearing mice were placed in lead boxes, positioned so as to have the tumors protruding through a cut-out window at the rear of each box. The radiation dose was delivered using a Philips RT-250 200 kVp X-ray unit (12.5 mA; Half Value Layer, 1.0-mm Cu) at a dose rate of 138 cGy/min. The tumors were exposed to 150-250 cGy per fraction daily for 5 consecutive days as specified in each experiment.
# as §1
# GH3 cells [3] = assay type: cell-based, rat; conditions: for surviving fraction at 10 Gy: 100 nM lanreotide, plus 10 Gy radiation (radiation alone 0.0006); for cell survival rate (colony forming units): 21 days
# From the text: Currently, there are no human pituitary GH-secreting cell lines that can be maintained in a differentiated state in vitro for sufficient time for colony formation assessment (Danila, D. C. et al., J. Clin. Endocrinol. Metab., 2001, 86:2976-8; Danila, D. C. et al., J. Clin. Endocrinol. Metab., 2000, 85:1180-7). As such, a rat GH3 pituitary tumor cell line was purchased from ATCC. The GH3 cells were maintained in DMED/F-12 medium (Gibco BRL, Grand Island, N.Y.) supplemented with 10% fetal calf serum, 100 units/ml penicillin and 100 μg/ml streptomycin in a 37° C. humidified incubator with a mixture of 95% air and 5% CO2. All experiments were performed on exponentially growing cells with a doubling time of approximately 30 hours.
# GH3 cells were detached from the cell culture support using a 0.05% trypsin-EDTA solution. The collected cells were counted, diluted in fresh growth medium and plated in triplicate in 60 mm Petri dishes (BD Biosciences, San Jose, Calif.) at dilutions of approximately 100-100,000 cells/dish. Lanreotide (Biomeasure, Inc., Milford, Mass., USA) was added to the diluted cells at final concentrations of 1-1000 nM. The cells were irradiated with 0-10 Gy at room temperature using a ^137Cs source with a dose rate of 300 cGy/min. Following exposure to lanreotide or gamma irradiation, the media was drained from the dish, the cells were washed twice with PBS (phosphate buffered saline) solution and the plates were filled with fresh growth medium. After incubation at 37° C. for 21 days, the cells were stained with 0.25% crystal violet. Colonies containing ≧50 cells were counted under a dissecting microscope and survival curves were generated. The plating efficiency (PE) was calculated as the percentage of cells plated that grew into colonies. The surviving fraction (SF) was defined as the fraction of cells surviving, i.e. number of colonies/(number of […]×PE).
# GH3 cells were plated in 60 mm tissue culture dishes and incubated overnight prior to treatment with the somatostatin agonist analog. Lanreotide was added to the cells to a final concentration of 1-1000 nM. After a 21 day incubation period in the presence of lanreotide the cells were stained and colonies with >50 cells were counted.
# GH3 cells were plated in tissue culture dishes and allowed to incubate overnight prior to treatment. At 48, 24 or 0 hours before radiation exposure, lanreotide was added to the cells at a final concentration of 100 nM or 1000 nM. At 48, 24 or 0 hours after the addition of the lanreotide, the GH3 cells were irradiated with 0-10 Gy at room temperature with a Cs-137 gamma irradiator. Following irradiation, cells with 24-hour or 0-hour pre-exposure to lanreotide were incubated in lanreotide-containing media for an additional 24 or 48 hours, respectively. After a total of 48-hour exposure, lanreotide-containing media was removed from the plates, the cells washed twice with PBS solution and fresh growth media added to the cells. Cells that were irradiated without exposure to lanreotide were also washed twice with PBS and supplied with fresh media. The cells were incubated for 21 days for colony formation.
smiles,measurement,setting,value
"CC(C)[C@@H]1NC(=O)[C@H](CCCCN)NC(=O)[C@@H](Cc2c[nH]c3ccccc23)NC(=O)[C@H](Cc2ccc(O)cc2)NC(=O)[C@@H](NC(=O)[C@H](N)Cc2ccc3ccccc3c2)CSSC[C@@H](C(=O)N[C@H](C(N)=O)[C@@H](C)O)NC1=O [lanreotide, D-2-Nal-Cys-Tyr-D-Trp-Lys-Val-Cys-Thr-NH2]","signs of systemic toxicity (general appearance, skin reaction, body weight, activity)",[1]; 10 mg/kg for 10 days alone and in combination with 150 cGy external radiation,did not result in any obvious signs of systemic toxicity
same,"animal body weight, combination vs fractionated radiation alone",[1]; 10 mg/kg lanreotide plus 150-250 cGy/fraction for 5 days,did not cause any further decrease in animal body weight
same,general appearance and daily activity,[1]; 2.5-50 mg/kg daily for 5 days,no notable change
same,body weight compared to untreated control mice,"[1]; 2.5-50 mg/kg daily for 5 days, all doses tested",did not cause significant decrease in body weight
same,percentage of cells in sub-G1 phase,GH3 cells [2]; 100 nM lanreotide alone (control 1.4±0.2% at 48 hours),2.28±0.3%
same,percentage of cells in S phase,GH3 cells [2]; 100 nM lanreotide alone (control 8.4±1.0%),7.72±0.8%
same,percentage of cells in G2/M phase,GH3 cells [2]; 100 nM lanreotide alone (control 16.9±1.8%),16.2±0.5%
same,percentage of cells in G1 phase,GH3 cells [2]; 100 nM lanreotide alone (control 73.2±1.0%),73.8±1.1%
same,apoptotic sub-G1 cells,GH3 cells [2]; 100 nM lanreotide 0 hours pre-exposure (radiation alone 4.9%),13.4%
same,apoptotic sub-G1 cells,GH3 cells [2]; 100 nM lanreotide 24 hours pre-exposure (radiation alone 4.9%),9.3%
same,apoptotic sub-G1 cells,GH3 cells [2]; 100 nM lanreotide 48 hours pre-exposure (radiation alone 4.9%),8.6%
same,sub-G1 cell fraction,"GH3 cells [2]; 168 hours after 10 Gy radiation, radiation plus 100 nM lanreotide (radiation alone 12%)",20-22%
same,"tumor growth delay time, pre-administration plus radiation","GH3 xenograft tumors; 10 mg/kg lanreotide 5 days, then lanreotide plus 150 cGy daily for 5 days (radiation alone 15.5±8.8 days)",15.1 ± 8.6 days
same,once daily vs twice daily dosing in reducing tumor growth,"GH3 xenograft tumors; 2.5, 5 or 10 mg/kg s.c. qd or bid for 5 days, p=0.3-0.9",lanreotide delivered once a day was as effective as lanreotide delivered twice daily
same,tumor growth 4× delay,"GH3 xenograft tumors; dose response study, 10 mg/kg s.c. daily for 5 days (optimal dose, bell-shaped curve)",13.1 ± 4.7 days
same,complete tumor regression,"GH3 xenograft tumors; irradiation and combination therapy groups, study terminated after 60 days",Two mice from the irradiation and combination therapy groups exhibited complete tumor regression
same,4×TGD,"GH3 xenograft tumors; lanreotide alone 10 mg/kg daily for 10 days, p=0.06 vs. control",8.3 ± 8.3 days
same,tumor growth 4× delay,"GH3 xenograft tumors; regimen comparison, 5 mg/kg twice daily for 5 days",1.1 ± 3.1 days
same,tumor growth 4× delay,"GH3 xenograft tumors; regimen comparison, 10 mg/kg once daily for 5 days",4.9 ± 2.1 days
same,surviving fraction at 10 Gy,GH3 cells [3]; 0 hour pre-exposure,0.00042
same,surviving fraction at 10 Gy,GH3 cells [3]; 24 hours pre-exposure,0.0004
same,surviving fraction at 10 Gy,GH3 cells [3]; 48 hours pre-exposure,0.00022
same,effect on radiation survival curves,GH3 cells [3]; 1000 nM lanreotide for 48 hours with 0-10 Gy radiation,did not alter the shape and slopes of the radiation survival curves
same,IC50,"GH3 cells [3]; GH3 cells, 21 day incubation in the presence of lanreotide, read-out: IC50 (50% inhibition of cell growth), colony formation",57 nM
same,cell survival rate (colony forming units),GH3 cells [3]; lanreotide 1 nM,75%
same,cell survival rate (colony forming units),GH3 cells [3]; lanreotide 10 nM,56%
same,cell survival rate (colony forming units),GH3 cells [3]; lanreotide 100 nM,39%
same,cell survival rate (colony forming units),GH3 cells [3]; lanreotide 1000 nM,27%
same,reduction of clonogenic survival compared with untreated controls,"GH3 cells [3]; lanreotide alone 100 nM or 1000 nM for 48 hours, without radiation",5-10%
